This note sets out measurements from patent US5401648A, “Peptides having peptidyl transferase inhibiting activity and methods of use thereof” (University of Maryland College Park, priority 1993, dated 1995).

The test system of one experiment is peptidyl transferase. Put plainly: Fragment reaction peptidyl transferase assay with 70S ribosomes. It is filed as biochemical, B. subtilis BR151. Particulars: preincubation of inhibitor with ribosomes prior to addition to other reactants. How it is done: (§1) The fragment reaction was used to assay peptidyl transferase activity. Reaction mixes consisted of 60 mM Tris-HCl (pH 7.4), 400 mM KCl, 20 mM magnesium sulfate, and 1 mM neutralized puromycin in 50 μl, to which was added 25 μl absolute ethanol. Unless specifically noted, 70S ribosomes purified from B. subtilis BR151 as described in Spedding^1/ were added to 0.55 uM ^35 S-labeled N-formylmethionine, charged to tRNA and digested with endonuclease T1 as described by Marcker^2/, was added to each reaction at 1×10^6 to 2×10^6 cpm.
(§2) Peptide inhibitors were typically preincubated with the ribosomes prior to addition to the other reactants. Antibiotic inhibitors such as chloramphenicol were added to reaction mixes with the ribosomes but without the preincubation step. […] Peptidyl transferase reaction mixes were incubated on ice for 1 h, and were terminated by addition of 50 μl of 0.3M sodium acetate saturated with magnesium sulfate followed by 1 ml of ethyl acetate. The ethyl acetate phase was counted for radioactivity. All peptidyl transferase assays were performed in duplicate or triplicate, and the replicates varied by less than 5%. In separate experiments, the inhibitory activity of a single peptide preparation on a single ribosome preparation varied by as much as 10%.

Experiment [1] deals with peptidyl transferase activity of the 50S subunits. Put plainly: Fragment reaction peptidyl transferase assay with dissociated 50S subunits. The experiment is classed as biochemical, B. subtilis BR151. How it is done:
as §1, §2
The 50S subunit contains the target for the 5-mer peptide. […]

Turning to `O=C(N[C@H](CO)[C@H](O)c1ccc([N+](=O)[O-])cc1)C(Cl)Cl` [chloramphenicol], in the experiment with peptidyl transferase, the “effect of preincubation with ribosomes on inhibitory effect on peptidyl transferase” value is reported as “failed to increase”.

With “4-mer: 4-mer comparison peptide (SEQ ID NO: 5), sequence not printed in the text (MVKT)”, in experiment [1], the “effect on the peptidyl transferase activity of the 50S subunits” value is reported as “little effect”.
